Test results reported in patent publication US4659741A, “β-[2-(halogenobenzyl)-phenoxy]-ethylamine derivatives” (Institut de Recherches Chimiques et Biologiques Appliquees …, priority 1983, dated 1987).
Converted amounts (≈) assume the structure as drawn. “Also recorded” adds a separate entry of the source. Read-outs that look alike come from different tables or passages of the source. One block for each compound: values may come before it.

Columns and labels:
[1] = Toxicity, LD-50 mice (Table VI); details: for LD50: mouse, in vivo
[2] = test system: Staphylococcus aureus London CIP A.238; assay: Minimal inhibiting concentration (MIC), Gram+ strain (Table IV); type: cell-based; details: for MIC: Staphylococcus aureus
Description: (§1) A certain number of compounds according to the invention are given non-restrictively by way of illustration in tables I, II and III hereinafter. The minimal inhibiting concentrations (MIC) of these compounds vis-a-vis a Gram+bacteria (Staphylococcus aureus London) a Gram-bacteria (Escherichia coli) and a fungus (Candida albicans) are given hereinafter in table IV. In table V are tabulated the MIC values of two compounds according to the invention which are particularly interesting [compound B 673 (example 26) and compound B 674 (example 29)] vis-a-vis several strains.
(§2) The strains used are those of the catalogues of the "Institut Pasteur" of Paris (abbreviation: CIP), the "Centre International de Distribution de Souches et d'Information sur les Types Microbiens de Lausanne" (abbreviation: La) and the "American Type Culture Collection" (abbreviation: ATCC).
G^+ = Gram^+ strain: Staphylococcus aureus London CIP A.238

[3] = test system: Escherichia coli CIP 54.8; assay: Minimal inhibiting concentration (MIC), Gram- strain (Table IV); type: cell-based; details: CIP54
Description: as §1, §2
G^- = Gram^- strain: Escherichia coli CIP 54.8

[4] = test system: Candida albicans CIP 1180; assay: Minimal inhibiting concentration (MIC), fungus strain (Table IV); type: cell-based; details: for MIC: Candida albicans, CIP1180, Candida albicans CIP 1180; for MIC C: Candida albicans CIP 1180
Description: as §1, §2
C = fungus strain: Candida albicans CIP 1180

[5] = test system: Bacillus subtilis ATCC 6633; assay: MIC vis-a-vis several strains (Table V); type: cell-based; details: ATCC6633
Description: as §1, §2

[6] = test system: Branhamella catarrhalis la 987; assay: MIC vis-a-vis several strains (Table V); type: cell-based; details: Moraxella catarrhalis, LA987
Description: as §1, §2

[7] = test system: Corynebacterium diphteriae CIP A.102; assay: MIC vis-a-vis several strains (Table V); type: cell-based; details: CIPA.102
Description: as §1, §2

[8] = test system: Diplococcus pneumoniae la 209; assay: MIC vis-a-vis several strains (Table V); type: cell-based; details: Streptococcus pneumoniae, LA209
Description: as §1, §2

[9] = test system: Haemophilus influenzae CIP 5293; assay: MIC vis-a-vis several strains (Table V); type: cell-based; details: CIP5293
Description: as §1, §2

[10] = test system: Klebsiella pneumoniae la 433; assay: MIC vis-a-vis several strains (Table V); type: cell-based; details: LA433
Description: as §1, §2

[11] = test system: Listeria monocytogenes CIP 54153; assay: MIC vis-a-vis several strains (Table V); type: cell-based; details: CIP54153
Description: as §1, §2

[12] = test system: Neisseria gonorrhoeae CIP A.52; assay: MIC vis-a-vis several strains (Table V); type: cell-based; details: CIPA.52
Description: as §1, §2

[13] = test system: Neisseria meningitidis CIP 7310; assay: MIC vis-a-vis several strains (Table V); type: cell-based; details: CIP7310
Description: as §1, §2

[14] = test system: Staphylococcus aureus ATCC 6538 P; assay: MIC vis-a-vis several strains (Table V); type: cell-based; details: ATCC6538
Description: as §1, §2

[15] = test system: Streptococcus faecalis CIP 53.152; assay: MIC vis-a-vis several strains (Table V); type: cell-based; details: Enterococcus faecalis, CIP53
Description: as §1, §2

[16] = test system: Streptococcus pyogenes CIP 56.42; assay: MIC vis-a-vis several strains (Table V); type: cell-based; details: CIP56
Description: as §1, §2

[17] = test system: Streptococcus pyogenes CIP 5641; assay: MIC vis-a-vis several strains (Table V); type: cell-based; details: CIP5641
Description: as §1, §2

[18] = test system: Streptococcus pyogenes CIP A.241; assay: MIC vis-a-vis several strains (Table V); type: cell-based; details: CIPA.241
Description: as §1, §2

[19] = test system: Streptococcus pyogenes la 147; assay: MIC vis-a-vis several strains (Table V); type: cell-based; details: LA147
Description: as §1, §2

Gram+ bacteriae = details: infectious diseases caused by Gram+ bacteriae; cited from earlier work
[20] = cited from earlier work

Compound: CCCCCCCCCCCCCCCC[N+](C)(C)C [Example A-2, cetrymonium chloride, reference compound]
- LD50 [1]: 750 mg/kg

- MIC [2]: 0.015 µg/mL
- MIC [3]: 16 µg/mL
- MIC [4]: 1 µg/mL
Compound: CCCC[N+](CC)(CC)CCOc1ccc(C(C)(C)CC(C)(C)C)cc1Cc1ccc(Cl)cc1Cl [Example 24]

- MIC G^+ ([2]; listed as Ex 3): 16 μ g/ml
- MIC [4]: 8 µg/mL (≈ 20.3 µM)
Compound: CCN(CC)CCOc1ccc(C(C)C)cc1Cc1ccc(Cl)cc1Cl [Example 3]

- MIC [2]: 16 µg/mL (≈ 43.7 µM)
- MIC [3]: 64 µg/mL (≈ 175 µM)
Compound: CC(C)c1ccc(OCCN(C)C)c(Cc2ccc(Cl)c(Cl)c2)c1 [Example 10]

Compound: CCCCc1ccc(OCC[N+](CC)(CC)Cc2ccccc2)c(Cc2ccc(Cl)cc2Cl)c1 [Example 31]
- MIC [2]: 0.031 µg/mL
- MIC [3]: 4 µg/mL
- MIC [4]: 0.125 µg/mL
- LD50 [1]: > 1000 mg/kg

Compound: benzalkonium chloride [Example A-1, reference compound]
- LD-50 mice ([1]; mice, route not given): 550 mg/kg

- MIC [2]: 0.125 µg/mL
- MIC [3]: 8 µg/mL
- MIC [4]: 0.5 µg/mL
Compound: CCC(C)(C)c1ccc(OCC[N+](C)(CC)CC)c(Cc2ccc(Cl)cc2Cl)c1.[I-] [Example 21, N,N-diethyl-N-{2-[2-(2,4-dichlorobenzyl)-4-(1,1-dimethylpropyl)-phenoxy]-ethyl}-N-methylammonium iodide]

- MIC [2]: 12.5 µg/mL (≈ 34.1 µM)
- MIC [3]: 50 µg/mL (≈ 136 µM)
Compound: CCN(CC)CCOc1ccc(C)cc1Cc1ccc(Cl)cc1Cl [Example 1]

Compound: CCc1ccc(OCC[N+](CC)(CC)Cc2ccccc2)c(Cc2ccc(Cl)cc2Cl)c1 [Example 27]
- MIC [2]: 0.125 µg/mL
- MIC [3]: 8 µg/mL
- MIC [4]: 0.5 µg/mL
- LD50 [1]: 850 mg/kg

Compound: CC[N+](CC)(CCOc1ccc(C)cc1Cc1ccc(Cl)cc1Cl)Cc1ccccc1 [Example 26]
- MIC [2]: 0.25 µg/mL
- MIC [3]: 32 µg/mL
- MIC [4]: 4 µg/mL
- MIC [5]: 1.56 µg/mL
- MIC [6]: 0.78 µg/mL
- MIC [7]: 25 µg/mL
- MIC [8]: 1.56 µg/mL
- MIC [9]: 0.78 µg/mL
- MIC [10]: 25 µg/mL
- MIC [11]: 1.56 µg/mL
- MIC [12]: 0.78 µg/mL
- MIC [13]: 0.78 µg/mL
- MIC [14]: 0.78 µg/mL
- MIC [15]: 3.12 µg/mL
- MIC [16]: 0.78 µg/mL
- MIC [17]: 0.78 µg/mL
- MIC [18]: 0.78 µg/mL
- MIC [19]: 0.78 µg/mL
- LD50 [1]: > 1000 mg/kg

- MIC [2]: 0.125 µg/mL
- MIC [3]: 16 µg/mL
- MIC [4]: 0.5 µg/mL
Compound: CCCCCCc1ccc(OCC[N+](CC)(CC)Cc2ccccc2)c(Cc2ccc(Cl)cc2Cl)c1 [Example 32]

- MIC [2]: 0.03 µg/mL
- MIC [4]: 1 µg/mL
Compound: CC[N+](CC)(CCOc1ccc(C(C)(C)CC(C)(C)C)cc1Cc1ccc(Cl)cc1Cl)Cc1ccccc1 [Example 33]

- MIC G^+ ([2]; listed as Ex 13): 8 μ g/ml
- MIC C ([4]; listed as Ex 13): 0.5 μ g/ml
Compound: CCC(C)c1ccc(OCCN(CC)CC)c(Cc2ccc(Cl)cc2Cl)c1 (centres unmarked) [Example 13]
- spasmolytic properties (Spasmolytic properties): beneficial spasmolytic properties

- MIC [2]: 0.125 µg/mL
- MIC [3]: 64 µg/mL
- MIC [4]: 0.25 µg/mL
Compound: CC[N+](C)(CC)CCOc1ccc(C(C)(C)CC(C)(C)C)cc1Cc1ccc(Cl)cc1Cl [Example 22]

Compound: CC(C)(C)CC(C)(C)c1ccc(O)c(Cc2ccc(Cl)cc2Cl)c1 [B.11, 2-(2,4-dichlorobenzyl)-4-(1,1,3,3-tetramethylbutyl)-phenol]
- effectiveness in the treatment of infectious diseases (Gram+ bacteriae): particularly effective in the treatment of infectious diseases caused by Gram+ bacteriae
- water solubility / dispersibility [20]: not naturally water soluble nor water dispersible

- MIC [2]: 8 µg/mL
- MIC [3]: 64 µg/mL
- MIC [4]: 4 µg/mL
Compound: CCN(CC)CCOc1ccc(C(C)(C)CC)cc1Cc1ccc(Cl)cc1Cl.Cl [Example 14, β-[2-(2,4-dichlorobenzyl)-4-(1,1-dimethylpropyl)-phenoxy]-N,N-diethylethylamine hydrochloride]
- spasmolytic properties (Spasmolytic properties): beneficial spasmolytic properties

- MIC [2]: 25 µg/mL (≈ 53.8 µM)
Compound: CCN(CC)CCOc1ccc(C(C)(C)CC(C)(C)C)cc1Cc1ccc(Cl)cc1Cl [Example 9]

- MIC [2]: 0.015 µg/mL
- MIC [3]: 8 µg/mL
- MIC [4]: 0.25 µg/mL
Compound: CC[N+](CC)(CCOc1ccc(C(C)C)cc1Cc1ccc(Cl)cc1Cl)Cc1ccccc1 [Example 28]

- MIC [2]: 50 µg/mL (≈ 122 µM)
Compound: CCN(CC)CCOc1ccc(C(C)(C)C)cc1Cc1ccc(Cl)cc1Cl [Example 5, β-[2-(2,4-dichlorobenzyl)-4-tertiobutylphenoxy]-N,N-diethyl-ethylamin]

- MIC G^+ ([2]; listed as Ex 4): 32 μ g/ml
- MIC C ([4]; listed as Ex 4): 16 μ g/ml
Compound: CCC(C)c1ccc(OCCN(CC)CC)c(Cc2ccc(Cl)cc2Cl)c1 (centres unmarked) [Example 4]

- MIC G^+ ([2]; listed as Ex 12): 4 μ g/ml
- MIC C ([4]; listed as Ex 12): 4 μ g/ml
Compound: CCN(CC)CCOc1ccc(C(C)C)cc1Cc1ccc(Cl)cc1Cl [Example 12]
- spasmolytic properties (Spasmolytic properties; listed as B 805): beneficial spasmolytic properties; also recorded: The most interesting compound, as spasmolytic agent

Compound: CC[N+](CC)(CCOc1ccc(C(C)(C)C)cc1Cc1ccc(Cl)cc1Cl)Cc1ccccc1 [Example 29, N,N-diethyl-N-{2-[2-(2,4-dichlorobenzyl)-tertiobutylphenoxy]-ethyl}-N-benzylammonium chloride]
- MIC [2]: 0.015 µg/mL
- MIC [3]: 4 µg/mL
- MIC [4]: 0.125 µg/mL
- MIC [5]: 0.78 µg/mL
- MIC [6]: 0.78 µg/mL
- MIC [7]: 3.12 µg/mL
- MIC [8]: 0.78 µg/mL
- MIC [9]: 0.78 µg/mL
- MIC [10]: 6.25 µg/mL
- MIC [11]: 0.78 µg/mL
- MIC [12]: 0.78 µg/mL
- MIC [13]: 0.78 µg/mL
- MIC [14]: 0.78 µg/mL
- MIC [15]: 0.78 µg/mL
- MIC [16]: 0.78 µg/mL
- MIC [17]: 0.78 µg/mL
- MIC [18]: 0.78 µg/mL
- MIC [19]: 0.78 µg/mL
- LD50 [1]: > 1000 mg/kg

Compound: CCCC[N+](CC)(CC)CCOc1ccc(C(C)(C)CC)cc1Cc1ccc(Cl)cc1Cl.[Br-] [Example 23, N,N-diethyl-N-{2-[2-(2,4-dichlorobenzyl)-4-(1,1-dimethylpropyl)-phenoxy]-ethyl}-N-butylammonium bromide]
- MIC [2]: 0.06 µg/mL
- MIC [3]: 4 µg/mL
- MIC [4]: 0.25 µg/mL
- LD50 [1]: > 1000 mg/kg

- MIC [2]: 64 µg/mL (≈ 157 µM)
- MIC [3]: 64 µg/mL (≈ 157 µM)
- MIC [4]: 64 µg/mL (≈ 157 µM)
Compound: CCCCc1ccc(OCCN(CC)CC)c(Cc2ccc(Cl)cc2Cl)c1 [Example 7]

- MIC G^+ ([2]; listed as Ex 11): 8 μ g/ml
- MIC C ([4]; listed as Ex 11): 8 μ g/ml
Compound: CCc1ccc(OCCN(CC)CC)c(Cc2ccc(Cl)cc2Cl)c1 [Example 11]
- spasmolytic properties (Spasmolytic properties): beneficial spasmolytic properties

Compound: CCC(C)(C)c1ccc(OCC[N+](CC)(CC)Cc2ccccc2)c(Cc2ccc(Cl)cc2Cl)c1 [Example 30]
- MIC [2]: 0.004 µg/mL
- MIC [3]: 4 µg/mL
- MIC [4]: 0.25 µg/mL
- LD50 [1]: > 1000 mg/kg

- MIC [2]: 64 µg/mL (≈ 147 µM)
- MIC [3]: 64 µg/mL (≈ 147 µM)
- MIC [4]: 64 µg/mL (≈ 147 µM)
Compound: CCCCCCc1ccc(OCCN(CC)CC)c(Cc2ccc(Cl)cc2Cl)c1 [Example 8]

- MIC G^+ ([2]; listed as Ex 2): 64 μ g/ml
- MIC C ([4]; listed as Ex 2): 64 μ g/ml
Compound: CCc1ccc(OCCN(CC)CC)c(Cc2ccc(Cl)cc2Cl)c1 [Example 2]

- MIC G^+ ([2]; listed as Ex 15): 16 μ g/ml
Compound: CCN(CC)CCOc1ccc(C(C)(C)CC(C)(C)C)cc1Cc1ccc(Cl)cc1Cl [Example 15]
- spasmolytic properties (Spasmolytic properties): beneficial spasmolytic properties

- MIC [2]: 8 µg/mL (≈ 18.9 µM)
- MIC [4]: 16 µg/mL (≈ 37.9 µM)
Compound: CCN(CC)CCOc1ccc(C(C)(C)CC)cc1Cc1ccc(Cl)cc1Cl [Example 6, β-[2-(2,4-dichlorobenzyl)-4-(1,1-dimethylpropyl)-phenoxy]-N,N-diethylethylamine]
